Data as given in PubChem BioAssay (NCI).
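Compound exposure: 48 hours, 5 concentrations, 96-well plates. Abbreviation: GI50, concentration required for 50% inhibition of growth. At the TGI there is no net growth.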

Columns and labels:
Test in all cases: inhibition of tumour cell growth, NCI panel, 48 h
HCT-15 colon = system: HCT-15 colon
HS 578T breast = system: HS 578T breast
OVCAR-5 ovarian = system: OVCAR-5 ovarian
M14 melanoma = system: M14 melanoma
A549 NSCLC = system: A549 NSCLC
UACC-62 melanoma = system: UACC-62 melanoma
786-0 renal = system: 786-0 renal
DU-145 prostate = system: DU-145 prostate
RPMI-8226 leukemia = system: RPMI-8226 leukemia
ACHN renal = system: ACHN renal
MOLT-4 leukemia = system: MOLT-4 leukemia
HL-60(TB) leukemia = system: HL-60(TB) leukemia
HCC-2998 colon = system: HCC-2998 colon
SN12C renal = system: SN12C renal
MCF7 breast = system: MCF7 breast
OVCAR-4 ovarian = system: OVCAR-4 ovarian
UACC-257 melanoma = system: UACC-257 melanoma
MDA-MB-468 breast = system: MDA-MB-468 breast
OVCAR-3 ovarian = system: OVCAR-3 ovarian
KM12 colon = system: KM12 colon
UO-31 renal = system: UO-31 renal
SK-OV-3 ovarian = system: SK-OV-3 ovarian
NCI-H226 lung = system: NCI-H226 lung
SF-295 CNS = system: SF-295 CNS
U251 CNS = system: U251 CNS
SF-268 CNS = system: SF-268 CNS
SF-539 CNS = system: SF-539 CNS
HOP-92 NSCLC = system: HOP-92 NSCLC
OVCAR-8 ovarian = system: OVCAR-8 ovarian
SK-MEL-28 melanoma = system: SK-MEL-28 melanoma

CC1(c2ccccc2)NC(=O)N(CC(=O)Nc2ccc(C(=O)/C=C/c3ccc(Cl)cc3)cc2)C1=O (centres undefined) was tested. Which TGI (HCT-15 colon) did it give?
The TGI was 18.4 µM.

What about the GI50 (HS 578T breast) of the same compound?
Its GI50 is 12.7 µM.

And the TGI (HS 578T breast)?
The TGI was greater than 100 µM.

What about the GI50 (OVCAR-5 ovarian) of the same compound?
The GI50 was 13.3 µM.

And the TGI (OVCAR-5 ovarian)?
Its TGI is 29 µM.

And the GI50 (M14 melanoma)?
Its GI50 is 3.22 µM.

And the TGI (M14 melanoma)?
The TGI was 12 µM.

What about the GI50 (A549 NSCLC) of the same compound?
The GI50 was 4.25 µM.

What about the TGI (A549 NSCLC) of the same compound?
The TGI was 20 µM.

What about the GI50 (UACC-62 melanoma) of the same compound?
Its GI50 is 4.07 µM.

What about the TGI (UACC-62 melanoma) of the same compound?
The TGI was 17.8 µM.

And the GI50 (786-0 renal)?
The GI50 was 7.48 µM.

And the TGI (786-0 renal)?
The TGI was 21 µM.

What about the GI50 (DU-145 prostate) of the same compound?
The GI50 was 12.3 µM.

What about the TGI (DU-145 prostate) of the same compound?
The TGI was 26.2 µM.

And the GI50 (RPMI-8226 leukemia)?
The GI50 was 1.93 µM.

What about the TGI (RPMI-8226 leukemia) of the same compound?
Its TGI is 5.07 µM.

And the GI50 (ACHN renal)?
Its GI50 is 4.92 µM.

What about the TGI (ACHN renal) of the same compound?
Its TGI is 17.7 µM.

What about the GI50 (MOLT-4 leukemia) of the same compound?
Its GI50 is 3.02 µM.

What about the TGI (MOLT-4 leukemia) of the same compound?
Its TGI is 23.1 µM.

What about the GI50 (HL-60(TB) leukemia) of the same compound?
Its GI50 is 4.06 µM.

What about the TGI (HL-60(TB) leukemia) of the same compound?
Its TGI is 30.9 µM.

And the GI50 (HCC-2998 colon)?
The GI50 was 1.79 µM.

What about the TGI (HCC-2998 colon) of the same compound?
Its TGI is 3.63 µM.

What about the GI50 (SN12C renal) of the same compound?
Its GI50 is 7.96 µM.

What about the TGI (SN12C renal) of the same compound?
The TGI was 25.4 µM.

What about the GI50 (MCF7 breast) of the same compound?
Its GI50 is 1.96 µM.

What about the TGI (MCF7 breast) of the same compound?
Its TGI is 5.28 µM.

What about the GI50 (OVCAR-4 ovarian) of the same compound?
Its GI50 is 7.35 µM.

What about the TGI (OVCAR-4 ovarian) of the same compound?
Its TGI is 36.1 µM.

And the GI50 (UACC-257 melanoma)?
The GI50 was 11.3 µM.

And the TGI (UACC-257 melanoma)?
The TGI was 25.7 µM.

What about the GI50 (MDA-MB-468 breast) of the same compound?
Its GI50 is 2.85 µM.

What about the TGI (MDA-MB-468 breast) of the same compound?
Its TGI is 12.3 µM.

And the GI50 (OVCAR-3 ovarian)?
The GI50 was 7.1 µM.

And the TGI (OVCAR-3 ovarian)?
The TGI was 21.9 µM.

And the GI50 (KM12 colon)?
Its GI50 is 2.54 µM.

And the TGI (KM12 colon)?
Its TGI is 6.87 µM.

What about the GI50 (UO-31 renal) of the same compound?
Its GI50 is 4.06 µM.

What about the TGI (UO-31 renal) of the same compound?
Its TGI is 18 µM.

And the GI50 (SK-OV-3 ovarian)?
The GI50 was 16 µM.

What about the TGI (SK-OV-3 ovarian) of the same compound?
The TGI was 44.6 µM.

What about the GI50 (NCI-H226 lung) of the same compound?
Its GI50 is 9.09 µM.

And the TGI (NCI-H226 lung)?
The TGI was 52.3 µM.

What about the GI50 (SF-295 CNS) of the same compound?
The GI50 was 4.34 µM.

What about the TGI (SF-295 CNS) of the same compound?
The TGI was 16.6 µM.

And the GI50 (U251 CNS)?
Its GI50 is 3.16 µM.

What about the TGI (U251 CNS) of the same compound?
The TGI was 14.3 µM.

What about the GI50 (SF-268 CNS) of the same compound?
The GI50 was 6.51 µM.

And the TGI (SF-268 CNS)?
The TGI was 31.5 µM.

What about the GI50 (SF-539 CNS) of the same compound?
Its GI50 is 6.15 µM.

And the TGI (SF-539 CNS)?
The TGI was 19.1 µM.

And the GI50 (HOP-92 NSCLC)?
The GI50 was 6.25 µM.

And the TGI (HOP-92 NSCLC)?
Its TGI is 53.7 µM.

What about the GI50 (OVCAR-8 ovarian) of the same compound?
The GI50 was 10.7 µM.

What about the TGI (OVCAR-8 ovarian) of the same compound?
The TGI was 52.5 µM.

What about the GI50 (SK-MEL-28 melanoma) of the same compound?
Its GI50 is 10.8 µM.

And the TGI (SK-MEL-28 melanoma)?
The TGI was 23.2 µM.
